Assay [1] addresses T1, human thyroid receptor beta ligand-binding domain (LBD) (Homo sapiens, UniProt P10828).
T1 construct: purchased Invitrogen
T1 sequence (P10828 217-461 limits assumed): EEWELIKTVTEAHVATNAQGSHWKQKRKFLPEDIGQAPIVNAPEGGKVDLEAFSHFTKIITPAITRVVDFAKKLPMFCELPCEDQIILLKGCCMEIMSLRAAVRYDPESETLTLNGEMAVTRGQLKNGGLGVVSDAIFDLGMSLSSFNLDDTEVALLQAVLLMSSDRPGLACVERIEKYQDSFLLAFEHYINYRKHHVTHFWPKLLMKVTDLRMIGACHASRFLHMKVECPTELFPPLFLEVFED
Nature of the assay: TR-FRET thyroid receptor beta coactivator assay (THR biochemical assay, Assay 1). The following applies: for EC50: THR-beta, TR-FRET coactivator assay, read-out: Activity category Assay 1 (EC50, THR-beta agonist); for Emax: Table 5, Assay 1, THRβ, read-out: Activity category Assay 1 THRβ (Emax). In short, it runs like this:
(§1)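 GST-tagged human TRβ or TRα LBD, 1 nM final (stated for β), with fluorescein-SRC2-2 coactivator peptide (200 nM) and Tb-anti-GST antibody (2 nM). Agonists serially diluted, 1% DMSO final. 1 h incubation at rt in the dark; TR-FRET read as rise in fluorescein and drop in terbium emission.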
For orientation: TR-FRET usually uses a lanthanide donor and a delayed reading to cut background.

Another assay deals with T2, THR alpha (Homo sapiens, UniProt P10827).
T2 construct: expressed in transfected cells; host or cells: HEK293T (ATCC CRL-3216)
T2 sequence (P10827 1-410 isoform P10827-2): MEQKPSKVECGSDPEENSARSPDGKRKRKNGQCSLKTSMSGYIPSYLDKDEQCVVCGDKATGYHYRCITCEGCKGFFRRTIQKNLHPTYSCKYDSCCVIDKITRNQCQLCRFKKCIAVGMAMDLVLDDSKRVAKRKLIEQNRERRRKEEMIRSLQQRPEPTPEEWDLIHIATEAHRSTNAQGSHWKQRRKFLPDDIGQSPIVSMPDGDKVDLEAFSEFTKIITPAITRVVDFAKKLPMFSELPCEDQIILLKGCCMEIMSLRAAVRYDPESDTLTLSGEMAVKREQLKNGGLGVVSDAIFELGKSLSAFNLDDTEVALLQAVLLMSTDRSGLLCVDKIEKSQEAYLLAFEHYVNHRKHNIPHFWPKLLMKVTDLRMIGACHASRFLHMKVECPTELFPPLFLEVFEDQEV
T2 sequence (P19793 1-462 partner): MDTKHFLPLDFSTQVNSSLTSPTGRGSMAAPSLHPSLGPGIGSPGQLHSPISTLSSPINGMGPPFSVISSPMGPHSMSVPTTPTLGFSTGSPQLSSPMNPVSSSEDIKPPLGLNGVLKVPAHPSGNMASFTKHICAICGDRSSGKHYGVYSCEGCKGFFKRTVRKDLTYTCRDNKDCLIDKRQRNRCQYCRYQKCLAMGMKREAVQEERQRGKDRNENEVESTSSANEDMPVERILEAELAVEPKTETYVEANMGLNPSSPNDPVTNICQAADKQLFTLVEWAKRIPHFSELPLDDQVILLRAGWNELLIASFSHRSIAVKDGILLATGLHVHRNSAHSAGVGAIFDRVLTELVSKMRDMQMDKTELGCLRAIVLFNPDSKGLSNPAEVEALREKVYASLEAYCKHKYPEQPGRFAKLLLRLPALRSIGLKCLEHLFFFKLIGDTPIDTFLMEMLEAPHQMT
In words: HEK293T THR alpha/RXR luciferase reporter assay (Assay 2). Type of assay: cell-based. The settings on record: Assay 2; for Emax: HEK-293T, Table 5, THRα, read-out: Activity category Assay 2 THRα (Emax); for EC50: Table 4, THR-alpha, read-out: Activity category Assay 2 (EC50, THR-alpha agonist activity). An outline of the steps:
(§2)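 HEK293T cells transiently transfected with TRE-luciferase reporter, RXR, and THR alpha or THR beta plasmid; ten five-fold compound dilutions from DMSO added for 18-24 h. One-Glo luminescence read; percent agonism normalized between negative and positive controls.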

Assay [2] has as its target T3, human thyroid receptor alpha ligand-binding domain (LBD) (Homo sapiens, UniProt P10827).
T3 construct: purchased Invitrogen
Nature of the assay: TR-FRET thyroid receptor alpha coactivator assay (THR biochemical assay, Assay 1). The settings on record: for EC50: Table 4, THR-alpha, read-out: Activity category Assay 1 (EC50, THR-alpha agonist activity); for Emax: Table 5, THRα, read-out: Activity category Assay 1 THRα (Emax). In short, it runs like this:
as §1

For a further assay, the target named is T4, THR beta (Homo sapiens, UniProt P10828).
T4 construct: expressed in transfected cells; host or cells: HEK293T (ATCC CRL-3216)
T4 sequence (P10828 1-461): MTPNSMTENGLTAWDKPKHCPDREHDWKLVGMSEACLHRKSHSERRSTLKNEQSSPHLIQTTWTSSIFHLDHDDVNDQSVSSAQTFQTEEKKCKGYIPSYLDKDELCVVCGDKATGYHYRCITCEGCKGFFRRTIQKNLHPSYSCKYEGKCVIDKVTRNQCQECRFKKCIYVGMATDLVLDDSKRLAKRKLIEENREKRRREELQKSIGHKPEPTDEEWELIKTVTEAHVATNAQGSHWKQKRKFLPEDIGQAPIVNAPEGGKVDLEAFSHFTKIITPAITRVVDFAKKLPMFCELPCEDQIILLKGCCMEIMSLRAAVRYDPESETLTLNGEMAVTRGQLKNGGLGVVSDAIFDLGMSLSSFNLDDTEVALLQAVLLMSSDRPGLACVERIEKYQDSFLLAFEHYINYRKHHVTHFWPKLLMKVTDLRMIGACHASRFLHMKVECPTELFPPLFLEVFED
T4 sequence (P19793 1-462 partner): T2 sequence (P19793 1-462 partner)
Nature of the assay: HEK293T THR beta/RXR luciferase reporter assay (Assay 2). Type of assay: cell-based. The settings on record: for Emax: HEK-293T, Table 5, Assay 2, THRβ, read-out: Activity category Assay 2 THRβ (Emax); for EC50: THR-beta, HEK293T reporter assay, read-out: Activity category Assay 2 (EC50, THR-beta agonist). An outline of the steps:
as §2

Broadly, the EC50 is the concentration that produces a half-maximal response. What is called Emax is the size of the effect at its maximum, as opposed to the concentration needed.

Molecules are shown by their SMILES. Where only a bound is given, the exact number is not on record here.

Take `CC(C)c1n[nH]c2nnc(Oc3c(Cl)cc(-n4nc(N)c(=O)[nH]c4=O)cc3Cl)cc12` [Compound 75, 6-amino-2-(3,5-dichloro-4-((3-isopropyl-1H-pyrazolo[3,4-c]pyridazin-5-yl)oxy)phenyl)-1,2,4-triazine-3,5 (2H,4H)-dione]: the EC50 was less than 0.05 µM in assay [1], 0.25 to 1 µM at THR alpha, 0.05 to 0.25 µM in assay [2] and less than 0.05 µM on THR beta. Moreover, the Emax (in assay [1]; on THR alpha; in assay [2]; at THR beta) was greater than 75% in each case.

On to `CCCc1c[nH]c2ccc(Oc3c(Cl)cc(-n4nc(C#N)c(=O)[nH]c4=O)cc3Cl)nc12` [Compound 19], for which the EC50 in assay [1] is less than 0.05 µM; at THR alpha, 1 to 10 µM; in assay [2], greater than 25 µM; on THR beta, 1 to 10 µM. Moreover, the Emax was less than 50% in assay [1], less than 50% at THR alpha, less than 50% in assay [2] and greater than 75% at THR beta.

In the case of `Nc1nn(-c2cc(Cl)c(Oc3cc(C4(c5ccccc5)CC4)c(=O)[nH]n3)c(Cl)c2)c(=O)[nH]c1=O` [Compound 107], the EC50 in assay [1] is less than 0.05 µM; at THR alpha, 0.25 to 1 µM; in assay [2] it was 1 to 25 µM; on THR beta, 0.05 to 0.25 µM. The Emax in assay [1] is less than 50%; on THR alpha, less than 50%; in assay [2] it was less than 50%; at THR beta, 50 to 75%.

As to `O=c1cnn(-c2cc(Cl)c(Oc3cc(-c4ccc5c(c4)CCCC5)c(=O)[nH]n3)c(Cl)c2)c(=O)[nH]1` [Compound 91, 2-(3,5-dichloro-4-((6-oxo-5-(5,6,7,8-tetrahydronaphthalen-2-yl)-1,6-dihydropyridazin-3-yl)oxy)phenyl)-1,2,4-triazine-3,5(2H,4H)-dione], the EC50 in assay [1] was less than 0.05 µM; on THR alpha, greater than 10 µM; in assay [2], 1 to 25 µM; on THR beta, 0.05 to 0.25 µM. The Emax is less than 50% in assay [1], less than 50% on THR alpha, 50 to 75% in assay [2] and 50 to 75% at THR beta.

On to `Cc1cc(-n2ncc(=O)[nH]c2=O)cc(C)c1Cc1cnc2[nH]cc(C(C)C)c2n1` [Compound 56, 2-(4-((7-isopropyl-5H-pyrrolo[2,3-b]pyrazin-2-yl)methyl)-3,5-dimethylphenyl)-1,2,4-triazine-3,5(2H,4H)-dione], for which the EC50 in assay [1] is less than 0.05 µM; on THR alpha, 0.05 to 0.25 µM; in assay [2], 0.25 to 1 µM; on THR beta, 0.05 to 0.25 µM. Moreover, the Emax in assay [1] was less than 50%; on THR alpha, 50 to 75%; in assay [2], less than 50%; on THR beta it was greater than 75%.

Turning to `N#Cc1nn(-c2cc(Cl)c(Oc3ccc4[nH]ccc4c3)c(Cl)c2)c(=O)[nH]c1=O` [Compound 47, 2-[3,5-dichloro-4-(1H-indol-5-yloxy)phenyl]-3,5-dioxo-4H-1,2,4-triazine-6-carbonitrile], the EC50 in assay [1] is less than 0.05 µM; on THR alpha it was 1 to 10 µM; in assay [2], less than 0.05 µM; on THR beta, 1 to 10 µM. Further, the Emax is less than 50% in assay [1], greater than 75% on THR alpha, less than 50% in assay [2] and greater than 75% at THR beta.

Regarding `Cc1c(-n2nc(N)c(=O)[nH]c2=O)cc(Cl)c(Oc2cc(C(C)C)c(=O)[nH]n2)c1Cl` [Compound 35, 6-amino-2-[3,5-dichloro-4-[(5-isopropyl-6-oxo-1H-pyridazin-3-yl)oxy]-2-methyl-phenyl]-4H-1,2,4-triazine-3,5-dione], the EC50 in assay [1] was 1 to 25 µM; at THR alpha, 1 to 10 µM; in assay [2], 1 to 25 µM; on THR beta, 1 to 10 µM. Also, the Emax is 50 to 75% in assay [1], less than 50% at THR alpha, 50 to 75% in assay [2] and 50 to 75% on THR beta.

As for `CO[C@H]1C[C@@H](c2cc(Oc3c(Cl)cc(-n4nc(N)c(=O)[nH]c4=O)cc3Cl)n[nH]c2=O)C1` [Compound 103], the EC50 in assay [1] was 1 to 25 µM; at THR alpha, greater than 10 µM; in assay [2], greater than 25 µM; at THR beta, 1 to 10 µM. Moreover, the maximum response (Emax) (in assay [1]; on THR alpha; in assay [2]; at THR beta) was less than 50% each time.

Regarding `Cc1cc(-n2ncc(=O)[nH]c2=O)cc(C)c1Cc1ccc2c(c1)C1(CC1)C(=O)N2` [Compound 152, 2-(3,5-dimethyl-4-((2′-oxospiro[cyclopropane-1,3′-indolin]-5′-yl)methyl)phenyl)-1,2,4-triazine-3,5(2H,4H)-dione], the concentration for a half-maximal effect (EC50) (in assay [1]; at THR alpha; in assay [2]; on THR beta) was less than 0.05 µM each time. In addition, the Emax in assay [1] was less than 50%; on THR alpha it was 50 to 75%; in assay [2] it was 50 to 75%; on THR beta it was 50 to 75%.

Take `CC(C)NC(=O)c1c[nH]c2ccc(Oc3c(Cl)cc(-n4nc(C#N)c(=O)[nH]c4=O)cc3Cl)cc12` [Compound 20]: the EC50 is greater than 25 µM in assay [1], greater than 10 µM on THR alpha, greater than 25 µM in assay [2] and greater than 10 µM on THR beta. Moreover, the Emax (in assay [1]; on THR alpha; in assay [2]; at THR beta) was less than 50% each time.

In the case of `CC(C)c1cc(Oc2c(Cl)cc(-n3nc(N)c(=O)[nH]c3=O)c3c2CC3)n[nH]c1=O` [Compound 79, 6-Amino-2-[4-chloro-5-[(5-isopropyl-6-oxo-1H-pyridazin-3-yl)oxy]-bicyclo[4.2.0]octa-1(6),2,4-trien-2-yl]-4H-1,2,4-triazine-3,5-dione], the EC50 in assay [1] was 1 to 25 µM; on THR alpha, 1 to 10 µM; in assay [2] it was 1 to 25 µM; on THR beta it was greater than 10 µM. In addition, the Emax in assay [1] was 50 to 75%; on THR alpha, 50 to 75%; in assay [2], less than 50%; at THR beta it was greater than 75%.

On to `CO[C@H]1C[C@H](c2cc(Oc3c(Cl)cc(-n4nc(N)c(=O)[nH]c4=O)cc3Cl)n[nH]c2=O)C1` [Compound 102], for which the EC50 in assay [1] was 1 to 25 µM; on THR alpha, greater than 10 µM; in assay [2], 1 to 25 µM; at THR beta it was 1 to 10 µM. Besides, the Emax (in assay [1]; at THR alpha; in assay [2]; on THR beta) was less than 50% throughout.

(Values after patent US12180192B2, “Modulators of THR-β and methods of use thereof” (ALIGOS THERAPEUTICS, INC., priority 2019, dated 2024).)
